# Data as given in US10167284B2, “Spirocyclic compounds as agonists of the muscarinic M1 receptor and/or M4 receptor” (HEPTARES THERAPEUTICS LIMITED, priority 2015, dated 2019).
# Target: T1, human muscarinic M2 receptor (Homo sapiens, UniProt P08172)
# T1 sequence (P08172 1-466): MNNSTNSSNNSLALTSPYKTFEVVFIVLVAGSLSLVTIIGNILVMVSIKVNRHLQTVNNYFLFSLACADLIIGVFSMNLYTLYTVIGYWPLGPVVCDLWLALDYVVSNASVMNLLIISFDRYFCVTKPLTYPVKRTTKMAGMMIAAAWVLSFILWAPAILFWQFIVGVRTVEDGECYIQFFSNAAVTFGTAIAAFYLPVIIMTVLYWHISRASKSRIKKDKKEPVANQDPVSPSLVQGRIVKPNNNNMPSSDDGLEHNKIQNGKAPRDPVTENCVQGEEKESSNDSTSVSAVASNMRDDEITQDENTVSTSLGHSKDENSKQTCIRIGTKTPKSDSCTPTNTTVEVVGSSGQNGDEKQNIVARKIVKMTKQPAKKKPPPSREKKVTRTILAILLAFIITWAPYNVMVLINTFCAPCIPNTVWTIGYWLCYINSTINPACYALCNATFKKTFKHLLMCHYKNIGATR
# Test: Alphascreen Surefire phospho-ERK1/2 functional assay, M2
# Conditions: CHO cells stably expressing human M2; Emax relative to ACh
row,Compound,M2 % Emax cf. ACh
1,"CCOC(=O)N1CC2(CC(N3CCC4(CC3)OC(=O)NC4CC)C2)C1 (single isomer, unassigned) [2-1 Isomer 1]",(15) %
2,"CCOC(=O)N1CCC2(CC(N3CCC4(CC3)OC(=O)NC4CC)C2)C1 (single isomer, unassigned) [4-12 Isomer 3]",(20) %
3,"CCOC(=O)N1CCC2(CC(N3CCC4(CC3)OC(=O)N(CC)C4CC)C2)C1 (single isomer, unassigned) [4-22 Isomer 4]",(23) %
4,"CCC1NC(=O)CC12CCN(C1CC3(CCN(C(=O)OC)C3)C1)CC2 (single isomer, unassigned) [3-4 Isomer 4]",(20) %

# Same assay, conditions: CHO cells stably expressing human M2; phospho-ERK1/2
row,Compound,pEC50 M2
1,"CCOC(=O)N1CC2(CC(N3CCC4(CC3)OC(=O)NC4CC)C2)C1 (single isomer, unassigned) [2-1 Isomer 1]",<4.7
2,"CCOC(=O)N1CCC2(CC(N3CCC4(CC3)OC(=O)N(CC)C4CC)C2)C1 (single isomer, unassigned) [4-22 Isomer 4]",<4.7
3,"CCC1NC(=O)CC12CCN(C1CC3(CCN(C(=O)OC)C3)C1)CC2 (single isomer, unassigned) [3-4 Isomer 4]",<4.7

# Same assay, conditions: CHO, read-out: M2 % Emax cf. ACh, CHO cells stably expressing human M2; Emax relative to ACh
row,Compound,Emax
1,"CCOC(=O)N1CCC2(CC(N3CCC4(CC3)OC(=O)NC4CC(F)(F)F)C2)C1 (single isomer, unassigned) [4-17 Isomer 1 (racemic)]",54%
2,"CCOC(=O)N1CC2(CCC(N3CCC4(CC3)OC(=O)NC4(C)C)C2)C1 (single isomer, unassigned) [8-3 Isomer 2]",2%
3,"CCOC(=O)N1CCC2(CC(N3CCC4(CNC(=O)C4)C(F)C3)C2)C1 (single isomer, unassigned) [3-9 Isomer 2]",4%

# Same assay, conditions: pEC50 M2, CHO cells stably expressing human M2; phospho-ERK1/2
row,Compound,EC50
1,"CCOC(=O)N1CCC2(CC(N3CCC4(CC3)OC(=O)NC4CC(F)(F)F)C2)C1 (single isomer, unassigned) [4-17 Isomer 1 (racemic)]",> 20 µM
2,"CCOC(=O)N1CC2(CCC(N3CCC4(CC3)OC(=O)NC4(C)C)C2)C1 (single isomer, unassigned) [8-3 Isomer 2]",> 20 µM
3,"CCOC(=O)N1CCC2(CC(N3CCC4(CNC(=O)C4)C(F)C3)C2)C1 (single isomer, unassigned) [3-9 Isomer 2]",> 20 µM
4,"CCOC(=O)N1CCC2(CC(N3CCC4(CC3)OC(=O)NC4CC)C2)C1 (single isomer, unassigned) [4-12 Isomer 3]",> 6.31 µM

# Target: T2, human muscarinic M4 receptor (Homo sapiens, UniProt P08173)
# T2 construct: expressed in transfected cells
# T2 sequence (P08173 1-479): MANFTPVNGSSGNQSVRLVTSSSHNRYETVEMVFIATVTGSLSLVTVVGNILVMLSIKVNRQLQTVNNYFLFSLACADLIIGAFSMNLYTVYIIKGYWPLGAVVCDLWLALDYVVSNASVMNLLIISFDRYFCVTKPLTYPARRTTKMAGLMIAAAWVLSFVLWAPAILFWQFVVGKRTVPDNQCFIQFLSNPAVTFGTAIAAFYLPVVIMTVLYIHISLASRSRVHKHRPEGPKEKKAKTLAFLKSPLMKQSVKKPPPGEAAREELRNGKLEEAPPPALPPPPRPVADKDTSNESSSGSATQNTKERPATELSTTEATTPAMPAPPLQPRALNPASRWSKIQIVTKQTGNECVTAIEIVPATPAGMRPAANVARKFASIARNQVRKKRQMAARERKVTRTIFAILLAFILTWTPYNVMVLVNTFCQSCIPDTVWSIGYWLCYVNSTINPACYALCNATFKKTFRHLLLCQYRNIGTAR
# Test: Alphascreen Surefire phospho-ERK1/2 functional assay, M4
# Assay type: cell-based
# Conditions: CHO cells stably expressing human M4; Emax relative to ACh
row,Compound,M4 % Emax cf. ACh
1,"CCOC(=O)N1CC2(CC(N3CCC4(CC3)OC(=O)NC4CC)C2)C1 (single isomer, unassigned) [2-1 Isomer 1]",(117) %
2,"CCOC(=O)N1CCC2(CC(N3CCC4(CC3)OC(=O)NC4CC)C2)C1 (single isomer, unassigned) [4-12 Isomer 3]",(118) %
3,"CCOC(=O)N1CCC2(CC(N3CCC4(CC3)OC(=O)N(CC)C4CC)C2)C1 (single isomer, unassigned) [4-22 Isomer 4]",(113) %
4,"CCC1NC(=O)CC12CCN(C1CC3(CCN(C(=O)OC)C3)C1)CC2 (single isomer, unassigned) [3-4 Isomer 4]",(76) %

# Same assay, conditions: CHO cells stably expressing human M4; phospho-ERK1/2
row,Compound,pEC50 M4
1,"CCOC(=O)N1CC2(CC(N3CCC4(CC3)OC(=O)NC4CC)C2)C1 (single isomer, unassigned) [2-1 Isomer 1]",6.9

# Same assay, conditions: CHO cells stably expressing human M4; phospho-ERK1/2; read-out: pEC50 M4 (converted)
row,Compound,EC50
1,"CCOC(=O)N1CCC2(CC(N3CCC4(CC3)OC(=O)NC4CC(F)(F)F)C2)C1 (single isomer, unassigned) [4-17 Isomer 1 (racemic)]",31.6 nM
2,"CCOC(=O)N1CC2(CCC(N3CCC4(CC3)OC(=O)NC4(C)C)C2)C1 (single isomer, unassigned) [8-3 Isomer 2]",3.16 nM
3,"CCOC(=O)N1CCC2(CC(N3CCC4(CNC(=O)C4)C(F)C3)C2)C1 (single isomer, unassigned) [3-9 Isomer 2]",> 20000 nM
4,"CCOC(=O)N1CCC2(CC(N3CCC4(CC3)OC(=O)NC4CC)C2)C1 (single isomer, unassigned) [4-12 Isomer 3]",6.31 nM
5,"CCOC(=O)N1CCC2(CC(N3CCC4(CC3)OC(=O)N(CC)C4CC)C2)C1 (single isomer, unassigned) [4-22 Isomer 4]",50.1 nM
6,"CCC1NC(=O)CC12CCN(C1CC3(CCN(C(=O)OC)C3)C1)CC2 (single isomer, unassigned) [3-4 Isomer 4]",6.31 nM

# Same assay, conditions: CHO, read-out: M4 % Emax cf. ACh, CHO cells stably expressing human M4; Emax relative to ACh
row,Compound,Emax
1,"CCOC(=O)N1CCC2(CC(N3CCC4(CC3)OC(=O)NC4CC(F)(F)F)C2)C1 (single isomer, unassigned) [4-17 Isomer 1 (racemic)]",107%
2,"CCOC(=O)N1CC2(CCC(N3CCC4(CC3)OC(=O)NC4(C)C)C2)C1 (single isomer, unassigned) [8-3 Isomer 2]",39%
3,"CCOC(=O)N1CCC2(CC(N3CCC4(CNC(=O)C4)C(F)C3)C2)C1 (single isomer, unassigned) [3-9 Isomer 2]",47%

# Target: human muscarinic M3 receptor (Homo sapiens, UniProt P20309)
# Sequence (P20309 whole entry): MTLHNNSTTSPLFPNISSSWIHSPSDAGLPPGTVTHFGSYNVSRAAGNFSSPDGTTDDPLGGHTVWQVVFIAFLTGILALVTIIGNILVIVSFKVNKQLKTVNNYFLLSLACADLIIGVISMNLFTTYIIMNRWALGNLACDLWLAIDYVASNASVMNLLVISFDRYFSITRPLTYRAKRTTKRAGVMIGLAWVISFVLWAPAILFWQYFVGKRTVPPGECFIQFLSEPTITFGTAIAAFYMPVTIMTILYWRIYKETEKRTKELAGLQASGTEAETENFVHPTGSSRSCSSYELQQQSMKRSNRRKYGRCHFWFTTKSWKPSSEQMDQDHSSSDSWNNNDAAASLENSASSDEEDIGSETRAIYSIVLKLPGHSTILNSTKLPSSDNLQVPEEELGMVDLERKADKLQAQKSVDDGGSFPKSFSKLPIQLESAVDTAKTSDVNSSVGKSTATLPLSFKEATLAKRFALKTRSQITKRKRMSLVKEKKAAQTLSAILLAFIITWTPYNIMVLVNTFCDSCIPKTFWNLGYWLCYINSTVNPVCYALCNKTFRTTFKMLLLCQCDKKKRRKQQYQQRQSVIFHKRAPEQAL
# Test: Alphascreen Surefire phospho-ERK1/2 functional assay, M3
# Conditions: not given
row,Compound,EC50
1,"CCOC(=O)N1CCC2(CC(N3CCC4(CC3)OC(=O)NC4CC(F)(F)F)C2)C1 (single isomer, unassigned) [4-17 Isomer 1 (racemic)]",> 20 µM
2,"CCOC(=O)N1CC2(CCC(N3CCC4(CC3)OC(=O)NC4(C)C)C2)C1 (single isomer, unassigned) [8-3 Isomer 2]",> 20 µM
3,"CCOC(=O)N1CCC2(CC(N3CCC4(CNC(=O)C4)C(F)C3)C2)C1 (single isomer, unassigned) [3-9 Isomer 2]",> 20 µM

# Same assay, conditions: CHO cells stably expressing human M3; Emax relative to ACh
row,Compound,M3 % Emax cf. ACh
1,"CCOC(=O)N1CC2(CC(N3CCC4(CC3)OC(=O)NC4CC)C2)C1 (single isomer, unassigned) [2-1 Isomer 1]",(9) %
2,"CCOC(=O)N1CCC2(CC(N3CCC4(CC3)OC(=O)NC4CC)C2)C1 (single isomer, unassigned) [4-12 Isomer 3]",(8) %
3,"CCOC(=O)N1CCC2(CC(N3CCC4(CC3)OC(=O)N(CC)C4CC)C2)C1 (single isomer, unassigned) [4-22 Isomer 4]",(2) %
4,"CCC1NC(=O)CC12CCN(C1CC3(CCN(C(=O)OC)C3)C1)CC2 (single isomer, unassigned) [3-4 Isomer 4]",(17) %

# Same assay, conditions: CHO cells stably expressing human M3; phospho-ERK1/2
row,Compound,pEC50 M3
1,"CCOC(=O)N1CC2(CC(N3CCC4(CC3)OC(=O)NC4CC)C2)C1 (single isomer, unassigned) [2-1 Isomer 1]",<4.7
2,"CCOC(=O)N1CCC2(CC(N3CCC4(CC3)OC(=O)NC4CC)C2)C1 (single isomer, unassigned) [4-12 Isomer 3]",<4.7
3,"CCOC(=O)N1CCC2(CC(N3CCC4(CC3)OC(=O)N(CC)C4CC)C2)C1 (single isomer, unassigned) [4-22 Isomer 4]",<4.7
4,"CCC1NC(=O)CC12CCN(C1CC3(CCN(C(=O)OC)C3)C1)CC2 (single isomer, unassigned) [3-4 Isomer 4]",<4.7

# Same assay, conditions: CHO, read-out: M3 % Emax cf. ACh, CHO cells stably expressing human M3; Emax relative to ACh
row,Compound,Emax
1,"CCOC(=O)N1CCC2(CC(N3CCC4(CC3)OC(=O)NC4CC(F)(F)F)C2)C1 (single isomer, unassigned) [4-17 Isomer 1 (racemic)]",14%
2,"CCOC(=O)N1CC2(CCC(N3CCC4(CC3)OC(=O)NC4(C)C)C2)C1 (single isomer, unassigned) [8-3 Isomer 2]",4%
3,"CCOC(=O)N1CCC2(CC(N3CCC4(CNC(=O)C4)C(F)C3)C2)C1 (single isomer, unassigned) [3-9 Isomer 2]",14%

# Target: T3, human muscarinic M1 receptor (Homo sapiens, UniProt P11229)
# T3 construct: expressed in transfected cells
# T3 sequence (P11229 1-460): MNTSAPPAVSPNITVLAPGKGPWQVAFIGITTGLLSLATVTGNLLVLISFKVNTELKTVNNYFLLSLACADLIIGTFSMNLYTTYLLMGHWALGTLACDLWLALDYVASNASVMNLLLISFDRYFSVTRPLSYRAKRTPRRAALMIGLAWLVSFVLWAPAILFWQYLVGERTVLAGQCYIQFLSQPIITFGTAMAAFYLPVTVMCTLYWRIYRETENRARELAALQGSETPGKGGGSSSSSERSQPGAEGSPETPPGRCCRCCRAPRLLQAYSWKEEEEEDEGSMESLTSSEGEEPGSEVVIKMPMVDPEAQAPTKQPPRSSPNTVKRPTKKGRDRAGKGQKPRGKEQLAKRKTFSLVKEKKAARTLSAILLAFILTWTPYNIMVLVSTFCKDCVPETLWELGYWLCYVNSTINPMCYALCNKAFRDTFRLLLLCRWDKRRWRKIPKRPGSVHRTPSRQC
# Test: Alphascreen Surefire phospho-ERK1/2 functional assay, M1
# Assay type: cell-based
# Conditions: CHO cells stably expressing human M1; Emax relative to ACh
# Protocol: CHO cells stably expressing the human muscarinic M1, M2, M3 or M4 receptor were plated (25K/well) onto 96-well tissue culture plates in MEM-alpha+10% dialysed FBS. Once adhered, cells were serum-starved overnight. Agonist stimulation was performed by the addition of 5 μL agonist to the cells for 5 min (37° C.). Media was removed and 50 μL of lysis buffer added. After 15 min, a 4 μL sample was transferred to 384-well plate and 7 μL of detection mixture added. Plates were incubated for 2 h with gentle agitation in the dark and then read on a PHERAstar plate reader.
# pEC50 and Emax figures were calculated from the resulting data for each receptor subtype.
row,Compound,M1 % Emax cf. ACh
1,"CCOC(=O)N1CC2(CC(N3CCC4(CC3)OC(=O)NC4CC)C2)C1 (single isomer, unassigned) [2-1 Isomer 1]",(107) %
2,"CCOC(=O)N1CCC2(CC(N3CCC4(CC3)OC(=O)NC4CC)C2)C1 (single isomer, unassigned) [4-12 Isomer 3]",(111) %
3,"CCOC(=O)N1CCC2(CC(N3CCC4(CC3)OC(=O)N(CC)C4CC)C2)C1 (single isomer, unassigned) [4-22 Isomer 4]",(104) %
4,"CCC1NC(=O)CC12CCN(C1CC3(CCN(C(=O)OC)C3)C1)CC2 (single isomer, unassigned) [3-4 Isomer 4]",(90) %

# Same assay, conditions: CHO cells stably expressing human M1; phospho-ERK1/2; read-out: pEC50 M1 (converted)
row,Compound,EC50
1,"CCOC(=O)N1CCC2(CC(N3CCC4(CC3)OC(=O)NC4CC(F)(F)F)C2)C1 (single isomer, unassigned) [4-17 Isomer 1 (racemic)]",126 nM
2,"CCOC(=O)N1CC2(CC(N3CCC4(CC3)OC(=O)NC4CC)C2)C1 (single isomer, unassigned) [2-1 Isomer 1]",251 nM
3,"CCOC(=O)N1CC2(CCC(N3CCC4(CC3)OC(=O)NC4(C)C)C2)C1 (single isomer, unassigned) [8-3 Isomer 2]",> 20000 nM
4,"CCOC(=O)N1CCC2(CC(N3CCC4(CNC(=O)C4)C(F)C3)C2)C1 (single isomer, unassigned) [3-9 Isomer 2]",794 nM
5,"CCOC(=O)N1CCC2(CC(N3CCC4(CC3)OC(=O)NC4CC)C2)C1 (single isomer, unassigned) [4-12 Isomer 3]",25.1 nM
6,"CCOC(=O)N1CCC2(CC(N3CCC4(CC3)OC(=O)N(CC)C4CC)C2)C1 (single isomer, unassigned) [4-22 Isomer 4]",200 nM
7,"CCC1NC(=O)CC12CCN(C1CC3(CCN(C(=O)OC)C3)C1)CC2 (single isomer, unassigned) [3-4 Isomer 4]",63.1 nM

# Same assay, conditions: CHO, read-out: M1 % Emax cf. ACh, CHO cells stably expressing human M1; Emax relative to ACh
row,Compound,Emax
1,"CCOC(=O)N1CCC2(CC(N3CCC4(CC3)OC(=O)NC4CC(F)(F)F)C2)C1 (single isomer, unassigned) [4-17 Isomer 1 (racemic)]",114%
2,"CCOC(=O)N1CC2(CCC(N3CCC4(CC3)OC(=O)NC4(C)C)C2)C1 (single isomer, unassigned) [8-3 Isomer 2]",12%
3,"CCOC(=O)N1CCC2(CC(N3CCC4(CNC(=O)C4)C(F)C3)C2)C1 (single isomer, unassigned) [3-9 Isomer 2]",62%
